Data published in patent EP1190708A1, “Medical use of substances” (Tinnitus Forschungs- und Entwicklungs GmbH, priority 2000, dated 2002).

How the values were obtained:
[1] = test system: inhibitory postsynaptic currents (IPSC) in outer hair cells; assay: Voltage-clamp recording of inhibitory postsynaptic currents in outer hair cells of the organ of Corti preparation; assay type: cell-based, Wistar rats; design: inhibition of postsynaptic currents (reversibility): dose or concentration left out as unconfirmed
Procedure: Organs of Corti were dissected from the cochleae of Wistar rats (11-24 days old) as described previously (Oliver, D. and Fakler, B. 1999. J. Physiol. (Lond.) 519 pt. 3, 791-800; Oliver, D., Klöcker, N., Schluck, J., Baukrowitz, T., Rup-persberg, J.P. and Fakler, B. 2000. Neuron 26, 591-601). The electrophysiology on OHCs was also described previously (Oliver, D. et al., 2000, see above).
(§1) In Fig 1B, postsynaptic currents were recorded from OHCs in voltage-clamp experiments when cells were held at -64 mV and the whole Corti preparation was superfused with high extracellular K^+ (150 mM) to depolarize the presynapse. Application of high K^+ and toxins as indicated by horizontal bars: current and time scaling as indicated.
as §1, with “3,” for “1B,”, “outer hair cells (OHCs)” for “OHCs”, “K^+” for “K^+ (150 mM)”, “indicated. […] This dose-dependent response determined for the IPSC in OHCs is illustrated in Fig. 3B.” for “indicated.”

[2] = target: T1, alpha9/alpha10 heteromeric acetylcholine receptors expressed in Xenopus oocytes (Rattus norvegicus, UniProt P43144+Q9JLB5); assay: Voltage-clamp recording of current responses to acetylcholine in oocytes expressing alpha9/alpha10 subunits; assay type: cell-based
T1 construct: expressed in transfected cells; host or cells: Xenopus laevis oocytes injected with in vitro synthesised mRNA
T1 sequence (P43144 26-479): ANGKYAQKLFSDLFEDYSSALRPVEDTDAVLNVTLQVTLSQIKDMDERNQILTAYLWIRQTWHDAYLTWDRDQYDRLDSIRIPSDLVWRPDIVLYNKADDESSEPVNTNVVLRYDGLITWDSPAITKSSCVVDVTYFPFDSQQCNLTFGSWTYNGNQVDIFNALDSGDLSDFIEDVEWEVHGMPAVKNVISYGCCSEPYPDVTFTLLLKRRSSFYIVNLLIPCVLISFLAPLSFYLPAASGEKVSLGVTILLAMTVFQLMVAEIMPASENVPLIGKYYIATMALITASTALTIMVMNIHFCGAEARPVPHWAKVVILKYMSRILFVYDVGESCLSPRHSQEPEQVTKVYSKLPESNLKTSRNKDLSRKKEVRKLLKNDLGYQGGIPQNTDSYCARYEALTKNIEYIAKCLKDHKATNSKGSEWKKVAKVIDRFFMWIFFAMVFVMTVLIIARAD
T1 sequence (Q9JLB5 25-447): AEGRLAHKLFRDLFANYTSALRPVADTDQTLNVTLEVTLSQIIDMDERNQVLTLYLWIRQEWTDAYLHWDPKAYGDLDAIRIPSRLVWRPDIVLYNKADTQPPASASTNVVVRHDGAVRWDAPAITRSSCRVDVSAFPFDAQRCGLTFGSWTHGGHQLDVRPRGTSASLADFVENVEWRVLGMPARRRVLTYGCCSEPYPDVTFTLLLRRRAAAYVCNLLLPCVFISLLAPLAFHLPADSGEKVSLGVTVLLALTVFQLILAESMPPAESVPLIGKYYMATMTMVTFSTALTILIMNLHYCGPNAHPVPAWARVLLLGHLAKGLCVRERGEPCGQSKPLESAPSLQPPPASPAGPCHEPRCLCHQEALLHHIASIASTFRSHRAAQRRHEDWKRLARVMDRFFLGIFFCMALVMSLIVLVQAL
Procedure: In vitro mRNA synthesis and oocyte injections were performed as previously described (Fakler, B., Brandle, U., Glowatzki, E., Weidemann, S., Zenner, H.P. and Ruppersberg, J.P. 1995. Cell 80, 149-154; Oliver, D. et al., 2000, see above). The electrophysiology on oocytes was also performed as described previously (Oliver, D. et al., 2000, see above).
For further characterization of strychnine treatment on the nAChR, the mRNA of alpha9/alpha10 subunits of the acetylcholine receptor were injected in oocytes of Xexopus laevis.
After expression of these subunits, they were investigated by treatment with strychnine in voltage-clamp experiment. The cells were held at -30 mV. Current and time scaling are as indicated. As is shown in Fig. 2, similar results were obtained as in Fig. 1. Consistent with the model shown above, the current responses at the acetylcholine receptor could be blocked reversibly by application with the acetylcholine blocker strychnine.
For further characterization of memantine treatment on the neuronal acetylcholine receptor (nAChR), the mRNA of alpha9-/alpha10 subunits of the acetylcholine receptor were injected in oocytes of Xexopus laevis. After expression of that subunits, these subunits were investigated by treatment with memantine in voltage-clamp experiment. The cells were held at -30 mV. Current and time scaling are as indicated. As is shown in Fig. 4, similar results were obtained as in Fig. 3. In this experiment the polarization potential of the cells was meassured after application of 100 µM acetylcholine in the presence or absence of memantine. Consistent with the results obtained in Fig. 3, the current responses at the acetylcholine receptor could be blocked by application with memantine. A halfmaximal inhibition occurs at concentrations of approximately 1 µM, as is illustrated in Figur 4B.

SMILES | inhibition of postsynaptic currents (reversibility) ([1]; OHCs held at -64 mV, dose-dependent response, Fig. 3) | IC50 ([1]; Rattus norvegicus, iPSC, OHCs held at -64 mV, high extracellular K+, Fig. 3B) [µM] | IC50 [2] [µM] | complete inhibition of postsynaptic currents at (concentration) [1] [nM] | complete inhibition of current responses at the acetylcholine receptor at (concentration) [2] [µM] | reversibility of block of the receptor [2]
CC12CC3CC(C)(C1)CC(N)(C3)C2 [memantine] | reversibly inhibited | ~16.6 | ~1 |  |  | 
O=C1C[C@@H]2OCC=C3CN4CC[C@]56c7ccccc7N1[C@H]5[C@H]2[C@H]3C[C@H]46 [strychnine] |  |  |  | 100 | 1 | reversible block of the receptor
